Key:
Assay in all cases: relative viability (nuclei count vs DMSO), 5 days (fraction); higher = more cells survive
NCI-H3122 = test system: NCI-H3122
Method in brief: (§1)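 A single step with final 0.05% Triton X-100, 1% formaldehyde and 1 ug/ml Hoechst fixed the cells and stained nuclei 5 days after treatment. Lung cancer cell lines in 1536-well plates had been treated by pin tool the day after seeding with one drug alone or a fixed anchor-drug dose plus five library-drug doses (not always all listed) in √10 steps, and nuclei were counted on 4× images. Relative viability is the ratio of nuclei in treated wells to nuclei in vehicle wells, taken as the median of duplicate plates.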

NCI-H2228 = test system: NCI-H2228
Method in brief: as §1

NCI-H322M = test system: NCI-H322M
Method in brief: as §1

CAL-12T = test system: CAL-12T
Method in brief: as §1

SK-LU-1 = test system: SK-LU-1
Method in brief: as §1

LCLC-97TM1 = test system: LCLC-97TM1
Method in brief: as §1

LCLC-103H = test system: LCLC-103H
Method in brief: as §1

HCC-44 = test system: HCC-44
Method in brief: as §1

NCI-H1793 = test system: NCI-H1793
Method in brief: as §1

NCI-H2087 = test system: NCI-H2087
Method in brief: as §1

NCI-H647 = test system: NCI-H647
Method in brief: as §1

201T = test system: 201T
Method in brief: as §1

RERF-LC-KJ = test system: RERF-LC-KJ
Method in brief: as §1

LXF-289 = test system: LXF-289
Method in brief: as §1

HCC-827 = test system: HCC-827
Method in brief: as §1

NCI-H1650 = test system: NCI-H1650
Method in brief: as §1

NCI-H1437 = test system: NCI-H1437
Method in brief: as §1

NCI-H727 = test system: NCI-H727
Method in brief: as §1

BEN = test system: BEN
Method in brief: as §1

NCI-H1395 = test system: NCI-H1395
Method in brief: as §1

NCI-H1944 = test system: NCI-H1944
Method in brief: as §1

NCI-H2405 = test system: NCI-H2405
Method in brief: as §1

HOP-62 = test system: HOP-62
Method in brief: as §1

C=C1C(=O)O[C@@H](CCCCCCCC)[C@@H]1C(=O)O [C-75] + CCNC(=O)c1noc(-c2cc(C(C)C)c(O)cc2O)c1-c1ccc(CN2CCOCC2)cc1 [Luminespib] (partner 0.01 µM)
relative viability (NCI-H3122; first compound 0.08 µM): 0.0952 | relative viability (NCI-H3122; first compound 0.253 µM): 0.128 | relative viability (NCI-H3122; first compound 0.8 µM): 0.0733 | relative viability (NCI-H3122; first compound 2.53 µM): 0.0938 | relative viability (NCI-H3122; first compound 8 µM): 0.131 | relative viability (NCI-H2228; first compound 0.08 µM): 0.135 | relative viability (NCI-H2228; first compound 0.253 µM): 0.161 | relative viability (NCI-H2228; first compound 0.8 µM): 0.116 | relative viability (NCI-H2228; first compound 2.53 µM): 0.181 | relative viability (NCI-H2228; first compound 8 µM): 0.283 | relative viability (NCI-H322M; first compound 0.08 µM): 0.928 | relative viability (NCI-H322M; first compound 0.253 µM): 1.24 | relative viability (NCI-H322M; first compound 0.8 µM): 0.816 | relative viability (NCI-H322M; first compound 2.53 µM): 0.879 | relative viability (NCI-H322M; first compound 8 µM): 0.829 | relative viability (CAL-12T; first compound 0.08 µM): 0.898 | relative viability (CAL-12T; first compound 0.253 µM): 0.365 | relative viability (CAL-12T; first compound 0.8 µM): 0.178 | relative viability (CAL-12T; first compound 2.53 µM): 0.405 | relative viability (CAL-12T; first compound 8 µM): 0.376 | relative viability (SK-LU-1; first compound 0.08 µM): 0.202 | relative viability (SK-LU-1; first compound 0.253 µM): 0.191 | relative viability (SK-LU-1; first compound 0.8 µM): 0.184 | relative viability (SK-LU-1; first compound 2.53 µM): 0.193 | relative viability (SK-LU-1; first compound 8 µM): 0.161 | relative viability (LCLC-97TM1; first compound 0.08 µM): 0.731 | relative viability (LCLC-97TM1; first compound 0.253 µM): 0.808 | relative viability (LCLC-97TM1; first compound 0.8 µM): 0.852 | relative viability (LCLC-97TM1; first compound 2.53 µM): 0.452 | relative viability (LCLC-97TM1; first compound 8 µM): 0.801 | relative viability (LCLC-103H; first compound 0.08 µM): 0.912 | relative viability (LCLC-103H; first compound 0.253 µM): 1.02 | relative viability (LCLC-103H; first compound 0.8 µM): 0.83 | relative viability (LCLC-103H; first compound 2.53 µM): 0.932 | relative viability (LCLC-103H; first compound 8 µM): 0.888 | relative viability (HCC-44; first compound 0.08 µM): 0.966 | relative viability (HCC-44; first compound 0.253 µM): 0.984 | relative viability (HCC-44; first compound 0.8 µM): 1 | relative viability (HCC-44; first compound 2.53 µM): 0.89 | relative viability (HCC-44; first compound 8 µM): 0.729 | relative viability (NCI-H1793; first compound 0.08 µM): 0.18 | relative viability (NCI-H1793; first compound 0.253 µM): 0.148 | relative viability (NCI-H1793; first compound 0.8 µM): 0.141 | relative viability (NCI-H1793; first compound 2.53 µM): 0.264 | relative viability (NCI-H1793; first compound 8 µM): 0.224 | relative viability (NCI-H2087; first compound 0.08 µM): 0.162 | relative viability (NCI-H2087; first compound 0.253 µM): 0.218 | relative viability (NCI-H2087; first compound 0.8 µM): 0.141 | relative viability (NCI-H2087; first compound 2.53 µM): 0.166 | relative viability (NCI-H2087; first compound 8 µM): 0.217 | relative viability (NCI-H647; first compound 0.08 µM): 0.114 | relative viability (NCI-H647; first compound 0.253 µM): 0.256 | relative viability (NCI-H647; first compound 0.8 µM): 0.183 | relative viability (NCI-H647; first compound 2.53 µM): 0.117 | relative viability (NCI-H647; first compound 8 µM): 0.13 | relative viability (201T; first compound 0.08 µM): 1.07 | relative viability (201T; first compound 0.253 µM): 1.08 | relative viability (201T; first compound 0.8 µM): 1.07 | relative viability (201T; first compound 2.53 µM): 1.04 | relative viability (201T; first compound 8 µM): 1.06 | relative viability (RERF-LC-KJ; first compound 0.08 µM): 1.31 | relative viability (RERF-LC-KJ; first compound 0.253 µM): 1.22 | relative viability (RERF-LC-KJ; first compound 0.8 µM): 1.23 | relative viability (RERF-LC-KJ; first compound 2.53 µM): 1.08 | relative viability (RERF-LC-KJ; first compound 8 µM): 1.11 | relative viability (LXF-289; first compound 0.08 µM): 0.599 | relative viability (LXF-289; first compound 0.253 µM): 0.66 | relative viability (LXF-289; first compound 0.8 µM): 0.671 | relative viability (LXF-289; first compound 2.53 µM): 0.641 | relative viability (LXF-289; first compound 8 µM): 0.702 | relative viability (HCC-827; first compound 0.08 µM): 0.519 | relative viability (HCC-827; first compound 0.253 µM): 0.703 | relative viability (HCC-827; first compound 0.8 µM): 0.825 | relative viability (HCC-827; first compound 2.53 µM): 0.42 | relative viability (HCC-827; first compound 8 µM): 0.566 | relative viability (NCI-H1650; first compound 0.08 µM): 0.215 | relative viability (NCI-H1650; first compound 0.253 µM): 0.194 | relative viability (NCI-H1650; first compound 2.53 µM): 0.141 | relative viability (NCI-H1650; first compound 8 µM): 0.211 | relative viability (NCI-H1437; first compound 0.08 µM): 1.15 | relative viability (NCI-H1437; first compound 0.253 µM): 1.27 | relative viability (NCI-H1437; first compound 0.8 µM): 1.11 | relative viability (NCI-H1437; first compound 2.53 µM): 1.13 | relative viability (NCI-H1437; first compound 8 µM): 1.12 | relative viability (NCI-H727; first compound 0.08 µM): 0.371 | relative viability (NCI-H727; first compound 0.253 µM): 0.358 | relative viability (NCI-H727; first compound 0.8 µM): 0.312 | relative viability (NCI-H727; first compound 8 µM): 0.484 | relative viability (BEN; first compound 0.08 µM): 0.351 | relative viability (BEN; first compound 0.253 µM): 0.302 | relative viability (BEN; first compound 0.8 µM): 0.302 | relative viability (BEN; first compound 8 µM): 0.181 | relative viability (NCI-H1395; first compound 0.08 µM): 0.613 | relative viability (NCI-H1395; first compound 0.253 µM): 0.574 | relative viability (NCI-H1395; first compound 0.8 µM): 0.713 | relative viability (NCI-H1395; first compound 2.53 µM): 0.755 | relative viability (NCI-H1395; first compound 8 µM): 0.686 | relative viability (NCI-H1944; first compound 0.08 µM): 0.777 | relative viability (NCI-H1944; first compound 0.253 µM): 0.642 | relative viability (NCI-H1944; first compound 0.8 µM): 0.684 | relative viability (NCI-H1944; first compound 8 µM): 0.761 | relative viability (NCI-H2405; first compound 0.08 µM): 0.822 | relative viability (NCI-H2405; first compound 0.253 µM): 0.478 | relative viability (NCI-H2405; first compound 0.8 µM): 0.716 | relative viability (NCI-H2405; first compound 2.53 µM): 0.558 | relative viability (NCI-H2405; first compound 8 µM): 0.869 | relative viability (HOP-62; first compound 0.08 µM): 0.858 | relative viability (HOP-62; first compound 0.253 µM): 0.945 | relative viability (HOP-62; first compound 0.8 µM): 0.902 | relative viability (HOP-62; first compound 2.53 µM): 0.909 | relative viability (HOP-62; first compound 8 µM): 0.801
